ChEMBL document CHEMBL1152560, “Substituted 2-arylbenzothiazoles as kinase inhibitors: hit-to-lead optimization” (Bioorg Med Chem, 2009)

Legend:
[1] = biological target: Serine/threonine-protein kinase pim-2 (Homo sapiens) (UniProt Q9P1W9); experiment: Residual activity of PIM2 at 1 uM by microplate scintillation counting
[2] = biological target: T1, Interleukin-1 receptor-associated kinase 4 (Homo sapiens) (UniProt Q9NWZ3); experiment: Residual activity of IRAK4 at 1 uM by microplate scintillation counting
T1 sequence (whole entry): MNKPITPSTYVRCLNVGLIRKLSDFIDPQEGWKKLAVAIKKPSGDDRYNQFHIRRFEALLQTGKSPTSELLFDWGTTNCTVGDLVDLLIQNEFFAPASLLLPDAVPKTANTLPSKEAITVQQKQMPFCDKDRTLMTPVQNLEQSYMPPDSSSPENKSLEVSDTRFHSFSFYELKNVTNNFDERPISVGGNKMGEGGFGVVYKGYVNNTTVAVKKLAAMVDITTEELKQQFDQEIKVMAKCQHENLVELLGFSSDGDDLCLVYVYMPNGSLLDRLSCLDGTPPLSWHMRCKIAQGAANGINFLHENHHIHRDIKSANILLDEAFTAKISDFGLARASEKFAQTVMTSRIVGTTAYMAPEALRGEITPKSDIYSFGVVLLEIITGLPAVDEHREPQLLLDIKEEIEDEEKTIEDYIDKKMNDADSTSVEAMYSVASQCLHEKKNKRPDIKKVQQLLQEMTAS

[3] = biological target: Mitogen-activated protein kinase kinase kinase kinase 4 (Homo sapiens) (UniProt O95819); experiment: Residual activity of MAP4K4 at 1 uM by microplate scintillation counting
Mitogen-activated protein kinase kinase kinase kinase 4 (Homo sapiens), sequence (O95819 2-1239 limits assumed): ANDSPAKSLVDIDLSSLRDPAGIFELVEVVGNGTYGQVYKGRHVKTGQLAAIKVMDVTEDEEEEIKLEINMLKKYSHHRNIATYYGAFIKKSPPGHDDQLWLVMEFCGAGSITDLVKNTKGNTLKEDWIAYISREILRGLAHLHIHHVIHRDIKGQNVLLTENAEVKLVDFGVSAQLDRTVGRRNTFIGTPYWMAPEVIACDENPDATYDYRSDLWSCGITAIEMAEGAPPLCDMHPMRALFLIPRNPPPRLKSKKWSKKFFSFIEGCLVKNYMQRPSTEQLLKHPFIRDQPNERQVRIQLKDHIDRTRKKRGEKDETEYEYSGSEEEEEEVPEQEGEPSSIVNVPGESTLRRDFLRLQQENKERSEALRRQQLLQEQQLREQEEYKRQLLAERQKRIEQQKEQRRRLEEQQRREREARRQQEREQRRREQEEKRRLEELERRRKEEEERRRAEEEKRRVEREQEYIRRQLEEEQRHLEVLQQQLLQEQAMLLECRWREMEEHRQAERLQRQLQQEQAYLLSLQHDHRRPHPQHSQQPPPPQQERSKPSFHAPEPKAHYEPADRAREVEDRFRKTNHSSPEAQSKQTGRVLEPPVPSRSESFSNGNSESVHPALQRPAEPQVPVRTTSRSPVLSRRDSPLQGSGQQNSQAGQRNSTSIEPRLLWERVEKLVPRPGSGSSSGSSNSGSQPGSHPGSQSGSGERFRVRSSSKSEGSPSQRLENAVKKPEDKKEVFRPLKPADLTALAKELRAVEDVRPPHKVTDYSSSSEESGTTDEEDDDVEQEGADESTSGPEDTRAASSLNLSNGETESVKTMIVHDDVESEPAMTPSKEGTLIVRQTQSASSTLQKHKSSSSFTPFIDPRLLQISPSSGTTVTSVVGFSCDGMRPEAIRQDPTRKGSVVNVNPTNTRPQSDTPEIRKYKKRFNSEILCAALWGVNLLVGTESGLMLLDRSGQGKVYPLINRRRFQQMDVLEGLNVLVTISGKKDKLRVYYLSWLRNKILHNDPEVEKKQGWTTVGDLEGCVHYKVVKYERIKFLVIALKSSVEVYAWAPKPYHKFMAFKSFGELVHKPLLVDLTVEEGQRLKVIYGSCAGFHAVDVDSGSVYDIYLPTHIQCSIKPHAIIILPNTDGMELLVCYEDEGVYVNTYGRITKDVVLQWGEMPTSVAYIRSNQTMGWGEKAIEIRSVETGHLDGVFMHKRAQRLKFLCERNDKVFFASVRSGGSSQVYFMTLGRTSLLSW

[4] = biological target: Dual specificity tyrosine-phosphorylation-regulated kinase 1B (Homo sapiens) (UniProt Q9Y463); experiment: Residual activity of DYRK1B at 10 uM by microplate scintillation counting
Dual specificity tyrosine-phosphorylation-regulated kinase 1B (Homo sapiens), sequence (Q9Y463 whole entry, looked up): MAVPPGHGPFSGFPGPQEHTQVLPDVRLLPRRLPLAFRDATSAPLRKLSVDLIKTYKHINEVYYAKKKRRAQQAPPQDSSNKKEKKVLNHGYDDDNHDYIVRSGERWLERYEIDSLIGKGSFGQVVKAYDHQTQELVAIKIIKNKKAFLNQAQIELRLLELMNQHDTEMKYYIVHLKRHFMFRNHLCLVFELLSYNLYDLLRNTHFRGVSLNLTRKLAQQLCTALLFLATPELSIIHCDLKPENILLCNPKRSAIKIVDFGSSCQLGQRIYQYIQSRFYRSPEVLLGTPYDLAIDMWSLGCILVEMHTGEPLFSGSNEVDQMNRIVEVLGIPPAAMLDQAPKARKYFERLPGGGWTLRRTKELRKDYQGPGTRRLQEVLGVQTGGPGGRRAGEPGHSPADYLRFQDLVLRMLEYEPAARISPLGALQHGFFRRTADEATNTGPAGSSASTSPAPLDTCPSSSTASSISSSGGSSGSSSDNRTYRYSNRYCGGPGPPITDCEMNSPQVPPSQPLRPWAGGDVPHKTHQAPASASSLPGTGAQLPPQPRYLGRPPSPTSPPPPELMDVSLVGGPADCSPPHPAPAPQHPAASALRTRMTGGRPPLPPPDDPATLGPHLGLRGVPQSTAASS

[5] = biological target: T2, Ephrin type-A receptor 1 (Homo sapiens) (UniProt P21709); experiment: Residual activity of EPHA1 at 10 uM by microplate scintillation counting
T2 sequence (whole entry): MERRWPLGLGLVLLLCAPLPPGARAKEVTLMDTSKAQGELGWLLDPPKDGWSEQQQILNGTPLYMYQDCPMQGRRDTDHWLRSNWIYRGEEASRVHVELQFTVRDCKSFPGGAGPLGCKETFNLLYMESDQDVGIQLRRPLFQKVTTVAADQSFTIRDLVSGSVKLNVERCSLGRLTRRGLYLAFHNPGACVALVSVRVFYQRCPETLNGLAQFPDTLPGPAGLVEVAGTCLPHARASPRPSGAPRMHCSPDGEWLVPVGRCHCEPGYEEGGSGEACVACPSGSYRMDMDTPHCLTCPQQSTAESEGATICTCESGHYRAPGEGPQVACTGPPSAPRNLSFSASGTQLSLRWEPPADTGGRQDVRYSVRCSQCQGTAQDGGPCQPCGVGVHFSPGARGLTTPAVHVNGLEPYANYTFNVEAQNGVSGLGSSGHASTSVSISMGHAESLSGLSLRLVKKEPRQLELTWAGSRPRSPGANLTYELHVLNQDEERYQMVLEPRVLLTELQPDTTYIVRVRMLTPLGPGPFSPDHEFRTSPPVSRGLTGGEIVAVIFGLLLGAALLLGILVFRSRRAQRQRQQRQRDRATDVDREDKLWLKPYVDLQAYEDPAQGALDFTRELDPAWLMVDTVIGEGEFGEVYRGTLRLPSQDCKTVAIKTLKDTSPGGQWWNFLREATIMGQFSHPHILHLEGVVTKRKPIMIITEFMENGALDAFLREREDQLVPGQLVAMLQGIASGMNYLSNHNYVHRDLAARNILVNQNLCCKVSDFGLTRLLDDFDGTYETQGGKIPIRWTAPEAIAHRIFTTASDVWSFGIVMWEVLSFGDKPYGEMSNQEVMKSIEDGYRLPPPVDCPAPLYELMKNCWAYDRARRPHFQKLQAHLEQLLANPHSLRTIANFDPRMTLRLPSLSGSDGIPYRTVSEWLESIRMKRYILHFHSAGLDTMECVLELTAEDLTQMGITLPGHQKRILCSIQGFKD

[6] = biological target: T3, Serine/threonine-protein kinase 3 (Homo sapiens) (UniProt Q13188); experiment: Residual activity of MST2 at 10 uM by microplate scintillation counting
T3 sequence (whole entry): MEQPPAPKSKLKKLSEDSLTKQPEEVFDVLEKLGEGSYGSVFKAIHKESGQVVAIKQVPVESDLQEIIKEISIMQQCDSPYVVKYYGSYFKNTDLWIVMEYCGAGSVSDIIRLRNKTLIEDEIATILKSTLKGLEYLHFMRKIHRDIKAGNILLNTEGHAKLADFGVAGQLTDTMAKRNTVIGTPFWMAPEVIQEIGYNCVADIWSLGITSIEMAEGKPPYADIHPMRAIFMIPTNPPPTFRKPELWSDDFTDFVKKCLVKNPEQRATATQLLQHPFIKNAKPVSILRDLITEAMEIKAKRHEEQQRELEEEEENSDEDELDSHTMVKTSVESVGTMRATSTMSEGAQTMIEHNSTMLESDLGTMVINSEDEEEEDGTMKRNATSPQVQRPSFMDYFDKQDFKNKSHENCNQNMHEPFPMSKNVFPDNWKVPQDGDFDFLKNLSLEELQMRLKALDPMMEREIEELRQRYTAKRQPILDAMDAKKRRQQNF

[7] = biological target: T4, Serine/threonine-protein kinase Sgk1 (Homo sapiens) (UniProt O00141); experiment: Residual activity of SGK1 at 0.1 uM by microplate scintillation counting
T4 sequence (whole entry): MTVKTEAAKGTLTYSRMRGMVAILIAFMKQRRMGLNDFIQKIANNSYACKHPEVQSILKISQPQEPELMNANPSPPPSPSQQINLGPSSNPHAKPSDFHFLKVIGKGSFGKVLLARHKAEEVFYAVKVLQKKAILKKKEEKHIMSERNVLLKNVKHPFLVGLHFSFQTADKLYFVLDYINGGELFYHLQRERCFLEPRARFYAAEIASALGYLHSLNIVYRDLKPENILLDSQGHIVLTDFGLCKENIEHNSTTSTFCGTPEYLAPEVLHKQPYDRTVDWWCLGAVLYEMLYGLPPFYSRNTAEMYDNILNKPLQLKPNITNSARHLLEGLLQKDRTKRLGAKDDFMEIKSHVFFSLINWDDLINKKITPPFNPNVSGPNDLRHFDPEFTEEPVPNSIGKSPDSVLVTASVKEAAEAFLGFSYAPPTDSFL

[8] = biological target: Serine/threonine-protein kinase 33 (Homo sapiens) (UniProt Q9BYT3); experiment: Residual activity of STK33 at 0.1 uM by microplate scintillation counting
Serine/threonine-protein kinase 33 (Homo sapiens), sequence (Q9BYT3 whole entry, looked up): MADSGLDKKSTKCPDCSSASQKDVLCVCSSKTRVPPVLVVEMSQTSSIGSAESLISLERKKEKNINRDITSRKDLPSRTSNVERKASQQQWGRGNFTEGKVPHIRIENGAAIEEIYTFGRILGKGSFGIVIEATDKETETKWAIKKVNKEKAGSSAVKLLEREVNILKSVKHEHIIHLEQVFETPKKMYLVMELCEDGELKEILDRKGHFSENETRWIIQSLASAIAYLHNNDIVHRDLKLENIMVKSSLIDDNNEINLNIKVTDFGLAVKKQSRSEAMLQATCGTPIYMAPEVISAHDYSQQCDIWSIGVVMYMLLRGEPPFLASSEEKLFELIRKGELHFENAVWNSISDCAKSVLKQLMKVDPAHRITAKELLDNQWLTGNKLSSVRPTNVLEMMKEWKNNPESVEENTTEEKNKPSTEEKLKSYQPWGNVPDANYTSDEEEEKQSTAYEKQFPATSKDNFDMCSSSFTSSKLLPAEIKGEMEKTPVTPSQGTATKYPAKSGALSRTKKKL

Serine/threonine-protein kinase pim-2 (Homo sapiens), sequence (Q9P1W9 whole entry, looked up): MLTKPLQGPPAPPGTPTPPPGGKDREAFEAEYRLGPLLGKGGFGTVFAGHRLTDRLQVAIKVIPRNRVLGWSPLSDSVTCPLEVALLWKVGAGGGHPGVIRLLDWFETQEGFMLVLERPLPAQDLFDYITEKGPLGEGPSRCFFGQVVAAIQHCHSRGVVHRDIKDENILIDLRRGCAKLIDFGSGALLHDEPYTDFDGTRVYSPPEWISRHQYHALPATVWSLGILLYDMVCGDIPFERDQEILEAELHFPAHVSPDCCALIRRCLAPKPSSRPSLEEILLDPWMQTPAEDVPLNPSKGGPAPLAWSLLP

A residual activity [1] of 63%, a residual activity [2] of 91% and a residual activity [3] of 81% were found for `COc1cc2c(Oc3ccc(-c4nc5ccccc5s4)cc3)ncnc2cc1OCCCN1CCN(C)CC1` in this work. The residual activity [4] was 224%, the residual activity [5] was 169% and the residual activity [6] was 21%. The residual activity [7] was 85% and the residual activity [8] was 81%.
A residual activity [1] of 77%, a residual activity [2] of 97% and a residual activity [3] of 97% were found for `COc1cc2c(Oc3ccc(-c4nc5ccccc5s4)cc3F)ncnc2cc1OCCCN1CCN(C)CC1` in this work. The residual activity [4] was 194%, the residual activity [5] was 79% and the residual activity [6] was 23%. It also gave a residual activity [7] of 98% and a residual activity [8] of 85%.
A residual activity [1] of 89%, a residual activity [2] of 90% and a residual activity [3] of 88% were found for `COc1cc2c(Oc3ccc(-c4nc5ccccc5s4)cc3)ncnc2cc1OCCCN1CCCC1` in this work. For the same compound, the residual activity [4] was 136%, the residual activity [5] was 199% and the residual activity [6] was 20%. It also gave a residual activity [7] of 96% and a residual activity [8] of 96%.
